Test results from US20190315806A1, “POLYMYXIN DERIVATIVE, PREPARATION METHOD AND APPLICATION THEREOF” (priority 2016, published 2019).
≈ marks a conversion by molar mass, not a printed value. Where a SMILES comes first, the peptide text is derived from it. Bridges are numbered along the chain shown (N, C = ends). [ ]: non-standard residue; d: D form. The star is where a group is joined. Heptanoyl(6-Me) = CC(C)CCCCC(=O)*; X2 = CC[C@H](C)CCCCC(=O)*; dDab = NCC[C@@H](N)C(=O)O; Dab = NCC[C@H](N)C(=O)O

How the values were obtained:
Assay type in all cases: cell-based
[1] = test system: Staphylococcus epidermidis ATCC 12228; settings: ATCC 12228
Outline: (§1)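 Overnight broth cultures were spotted at 10^4 CFU per dot onto agar plates holding two-fold compound dilutions (final 0.03–128 μg/mL), following CLSI. Plates were read after 18–24 h at 35 °C, with the lowest colony-free concentration taken as MIC.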

[2] = test system: Escherichia coli ATCC 25922; settings: ATCC 25922
Outline: as §1

[3] = test system: Pseudomonas aeruginosa ATCC 27853; settings: ATCC 27853
Outline: as §1

[4] = test system: Acinetobacter baumannii ATCC 19606; settings: ATCC 19606
Outline: as §1

[5] = test system: Klebsiella pneumoniae ATCC BAA-2146 (NDM-1); assay: Antibacterial activity, MIC by dish double dilution method; settings: ATCC BAA-2146
Outline: as §1

[6] = Nephrotoxicity test, renal cytotoxicity by MTT method; settings: African green monkey
Outline: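 Vero cells, adhered 24 h, exposed to a compound concentration gradient for 72 h at 37 °C, 5% CO2. Viability by MTT (0.5 mg/ml, 3 h), DMSO-solubilised, A570 nm, normalised to background and untreated control. IC50 from inhibition curve, mean of 3 wells per point.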

Compound | MIC S. epidermidis ATCC 12228 [1] [µg/mL] | MIC E. coli ATCC 25922 [2] [µg/mL] | MIC P. aeruginosa ATCC 27853 [3] [µg/mL] | MIC A. baumannii ATCC 19606 [4] [µg/mL] | MIC K. pneumoniae ATCC BAA-2146 (NDM-1) [5] [µg/mL] | IC50 at 72 h [6] [µg/mL]
CC(C)CCCCC(=O)N[C@@H](CCN)C(=O)N[C@H](C(=O)N[C@@H](CCN)C(=O)N[C@H]1CCNC(=O)[C@H]([C@@H](C)O)NC(=O)[C@H](CCN)NC(=O)[C@H](CCN)NC(=O)[C@H]([C@@H](C)O)NC(=O)[C@@H](CC(C)C)NC(=O)[C@H](CCN)NC1=O)[C@@H](C)O [Compound 103, 6-methylheptanoyl-Dab-Thr-Dab-ring(4-10)[Dab-Dab-D-Leu-Thr-Dab-Dab-Thr]] ({Heptanoyl(6-Me)}-[Dab]T[Dab][Dab][Dab][dL]T[Dab][Dab]T; lactam 4-C) | >128 | 0.5 (≈ 0.437 µM) | 0.5 (≈ 0.437 µM) | 1 (≈ 0.875 µM) | 0.5 (≈ 0.437 µM) | 276 ± 17.7 (≈ 241 µM)
CC[C@H](C)CCCCC(=O)N[C@@H](CCN)C(=O)N[C@H](C(=O)N[C@H](CO)C(=O)N[C@H]1CCNC(=O)[C@H]([C@@H](C)O)NC(=O)[C@H](CCN)NC(=O)[C@H](CCN)NC(=O)[C@H]([C@@H](C)O)NC(=O)[C@@H](Cc2ccccc2)NC(=O)[C@H](CCN)NC1=O)[C@@H](C)O [Compound 115, (S)-6-methyloctanoyl-Dab-Thr-D-Ser-ring(4-10)[Dab-Dab-D-Phe-Thr-Dab-Dab-Thr]] (X2-[Dab]T[dS][Dab][Dab][dF]T[Dab][Dab]T; lactam 4-C) | >128 | 0.25 (≈ 0.212 µM) | 2 (≈ 1.7 µM) | 0.12 (≈ 0.102 µM) | 0.5 (≈ 0.424 µM) | 160 ± 23.4 (≈ 136 µM)
CC(C)CCCCC(=O)N[C@@H](CCN)C(=O)N[C@H](C(=O)N[C@H](CO)C(=O)N[C@H]1CCNC(=O)[C@H]([C@@H](C)O)NC(=O)[C@H](CCN)NC(=O)[C@H](CCN)NC(=O)[C@H]([C@@H](C)O)NC(=O)[C@@H](Cc2ccccc2)NC(=O)[C@H](CCN)NC1=O)[C@@H](C)O [Compound 116, 6-methylheptanoyl-Dab-Thr-D-Ser-ring(4-10)[Dab-Dab-D-Phe-Thr-Dab-Dab-Thr]] ({Heptanoyl(6-Me)}-[Dab]T[dS][Dab][Dab][dF]T[Dab][Dab]T; lactam 4-C) | >128 | 0.25 (≈ 0.215 µM) | 2 (≈ 1.72 µM) | 0.25 (≈ 0.215 µM) | 1 (≈ 0.859 µM) | > 500
CC[C@H](C)CCCCC(=O)N[C@@H](CCN)C(=O)N[C@H](C(=O)N[C@@H](CCN)C(=O)N[C@H]1CCNC(=O)[C@H](CC(C)C)NC(=O)[C@H](CCN)NC(=O)[C@H](CCN)NC(=O)[C@H](CC(C)C)NC(=O)[C@@H](Cc2ccccc2)NC(=O)[C@H](CCN)NC1=O)[C@@H](C)O [Compound 127, (S)-6-methyloctanoyl-Dab-Thr-Dab-ring(4-10)[Dab-Dab-D-Phe-Lue-Dab-Dab-Lue]] (X2-[Dab]T[Dab][Dab][Dab][dF]L[Dab][Dab]L; lactam 4-C) | 8 (≈ 6.58 µM) | 4 (≈ 3.29 µM) | 4 (≈ 3.29 µM) | 2 (≈ 1.65 µM) | 4 (≈ 3.29 µM) | 17.2 ± 2.16 (≈ 14.1 µM)
CC(C)CCCCC(=O)N[C@@H](CCN)C(=O)N[C@H](C(=O)N[C@@H](CCN)C(=O)N[C@H]1CCNC(=O)[C@H](CC(C)C)NC(=O)[C@H](CCN)NC(=O)[C@H](CCN)NC(=O)[C@H](CC(C)C)NC(=O)[C@@H](Cc2ccccc2)NC(=O)[C@H](CCN)NC1=O)[C@@H](C)O [Compound 128, 6-methylheptanoyl-Dab-Thr-Dab-ring(4-10)[Dab-Dab-D-Phe-Lue-Dab-Dab-Lue]] ({Heptanoyl(6-Me)}-[Dab]T[Dab][Dab][Dab][dF]L[Dab][Dab]L; lactam 4-C) | 16 (≈ 13.3 µM) | 4 (≈ 3.33 µM) | 4 (≈ 3.33 µM) | 4 (≈ 3.33 µM) | 4 (≈ 3.33 µM) | 30.1 ± 2.59 (≈ 25 µM)
CC[C@H](C)CCCCC(=O)N[C@@H](CCN)C(=O)N[C@H](C(=O)N[C@H](CCN)C(=O)N[C@H]1CCNC(=O)[C@H]([C@@H](C)O)NC(=O)[C@H](CCN)NC(=O)[C@H](CCN)NC(=O)[C@H]([C@@H](C)O)NC(=O)[C@@H](Cc2ccccc2)NC(=O)[C@H](CCN)NC1=O)[C@@H](C)O [Compound 143, (S)-6-methyloctanoyl-Dab-Thr-D-Dab-ring(4-10)[Dab-Dab-D-Phe-Thr-Dab-Dab-Thr]] (X2-[Dab]T[dDab][Dab][Dab][dF]T[Dab][Dab]T; lactam 4-C) | >128 | 0.5 (≈ 0.42 µM) | 1 (≈ 0.839 µM) | 1 (≈ 0.839 µM) | 1 (≈ 0.839 µM) | 142 ± 15.2 (≈ 119 µM)
